Assay results as given in patent publication US20260274807A1 (University of Health Sciences and Pharmacy in St. Louis, priority 2023, published 2026).
pEC50: −log10 of the molar value.

How the values were obtained:
ERRγ = biological target: T1, ERRγ (Homo sapiens, UniProt P62508); test: ERRE luciferase reporter assay in HEK293 cells transfected with pcDNA3.1 ERRγ; type: cell-based; set-up: key to EC50 (ERRγ) μM: * <1 μM; ** 1-5 μM; *** >5 μM; i.a. (inactive); conditions: HEK293 cells transfected with ERRE reporter construct and pcDNA3.1 ERRγ; compound for 24 hours; luciferase activity
T1 construct: expressed in transfected cells; host or cells: HEK293
T1 sequence (P62508 1-458): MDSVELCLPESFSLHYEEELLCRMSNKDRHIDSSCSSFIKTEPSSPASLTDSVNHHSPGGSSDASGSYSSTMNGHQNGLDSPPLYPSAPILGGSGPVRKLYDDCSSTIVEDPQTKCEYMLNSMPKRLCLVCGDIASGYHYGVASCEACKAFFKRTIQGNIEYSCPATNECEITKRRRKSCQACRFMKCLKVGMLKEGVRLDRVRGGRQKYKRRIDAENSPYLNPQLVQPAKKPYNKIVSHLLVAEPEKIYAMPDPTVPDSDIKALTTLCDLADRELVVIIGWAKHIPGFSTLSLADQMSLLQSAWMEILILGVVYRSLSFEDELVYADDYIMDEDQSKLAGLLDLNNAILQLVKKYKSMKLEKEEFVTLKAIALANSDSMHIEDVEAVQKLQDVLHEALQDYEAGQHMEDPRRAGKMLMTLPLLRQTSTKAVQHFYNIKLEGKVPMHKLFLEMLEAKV
Description: (§1) HEK293 cells were maintained in Dulbecco's modified Eagles medium (DMEM) supplemented with 10% fetal bovine serum at 37° C. under […]. […] Cells were transfected with ERRE reporter construct and pcDNA3.1 ERRα or ERRγ. Twenty-four-hours post-transfection, the cells were treated with vehicle or compound (various concentrations) for 24 hours (4 wells per dose). Luciferase activity was measured using the One-Glo Tox luciferase reporter assay system (Promega) and EC50s were calculated using GraphPad Prism software.

ERRα = biological target: T2, ERRα (Homo sapiens, UniProt P11474); test: ERRE luciferase reporter assay in HEK293 cells transfected with pcDNA3.1 ERRα; type: cell-based; set-up: key to EC50 (ERRα) μM: * <1 μM; ** 1-5 μM; *** >5 μM; i.a. (inactive); conditions: HEK293 cells transfected with ERRE reporter construct and pcDNA3.1 ERRα; compound for 24 hours; luciferase activity
T2 construct: expressed in transfected cells; host or cells: HEK293
T2 sequence (P11474 1-423): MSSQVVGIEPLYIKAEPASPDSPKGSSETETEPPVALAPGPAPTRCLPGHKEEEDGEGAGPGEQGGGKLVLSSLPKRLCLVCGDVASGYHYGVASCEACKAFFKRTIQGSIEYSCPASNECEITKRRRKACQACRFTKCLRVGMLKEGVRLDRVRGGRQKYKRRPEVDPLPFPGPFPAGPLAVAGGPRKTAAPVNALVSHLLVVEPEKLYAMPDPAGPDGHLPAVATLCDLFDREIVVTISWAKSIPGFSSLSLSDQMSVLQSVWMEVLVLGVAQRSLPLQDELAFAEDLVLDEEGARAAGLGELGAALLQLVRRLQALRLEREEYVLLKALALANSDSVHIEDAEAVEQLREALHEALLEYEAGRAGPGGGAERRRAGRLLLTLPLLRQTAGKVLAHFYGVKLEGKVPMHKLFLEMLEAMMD
Description: as §1

Compound | pEC50 (ERRγ) | pEC50 (ERRα) | EC50 (ERRγ) μM (ERRγ) | EC50 (ERRα) μM (ERRα)
O=[N+]([O-])c1cccc(-c2nnc(-c3ccc(C(F)(F)F)cc3)o2)c1 [Entry 51, 2-(3-nitrophenyl)-5-(4-(trifluoromethyl)phenyl)-1,3,4-oxadiazole] | – | – | i.a. | i.a.
c1ccc(-c2nnc(-c3ccc4ccccc4n3)o2)cc1 [Entry 14, 2-phenyl-5-(quinolin-2-yl)-1,3,4-oxadiazole] | < 5.30 | < 5.30 | – | –
O=[N+]([O-])c1ccccc1-c1nnc(-c2ccc(Cl)cc2)o1 [Entry 92, 2-(4-chlorophenyl)-5-(2-nitrophenyl)-1,3,4-oxadiazole] | < 5.30 | < 5.30 | – | –
O=[N+]([O-])c1ccc(Br)cc1-c1nnc(-c2ccccc2)o1 [Entry 84, 2-(5-bromo-2-nitrophenyl)-5-phenyl-1,3,4-oxadiazole] | < 5.30 | < 5.30 | – | –
FC(F)(F)c1ccc(-c2nnc(-c3ccco3)o2)cc1 [Entry 44, 2-(furan-2-yl)-5-(4-(trifluoromethyl)phenyl)-1,3,4-oxadiazole] | 5.30 to 6.00 | 5.30 to 6.00 | – | –
O=[N+]([O-])c1ccc(-c2nnc(-c3cccc(C(F)(F)F)c3)o2)cc1 [Entry 64, 2-(4-nitrophenyl)-5-(3-(trifluoromethyl)phenyl)-1,3,4-oxadiazole] | < 5.30 | – | – | –
FC(F)(F)c1ccc(-c2nnc(-c3cccs3)o2)cc1 [Entry 46, 2-(thiophen-2-yl)-5-(4-(trifluoromethyl)phenyl)-1,3,4-oxadiazole] | 5.30 to 6.00 | 5.30 to 6.00 | – | –
FC(F)(F)c1cccc(-c2nnc(-c3ccccc3Cl)o2)c1 [Entry 65, 2-(2-chlorophenyl)-5-(3-(trifluoromethyl)phenyl)-1,3,4-oxadiazole] | < 5.30 | 5.30 to 6.00 | – | –
COc1cccc(-c2nnc(-c3ccc(C(F)(F)F)cc3)o2)c1 [Entry 54, 2-(3-methoxyphenyl)-5-(4-(trifluoromethyl)phenyl)-1,3,4-oxadiazole] | < 5.30 | < 5.30 | – | –
COc1ccc(-c2nnc(NC(=O)c3ccccc3)s2)cc1 [Entry 1033, N-(5-(4-methoxyphenyl)-1,3,4-thiadiazol-2-yl)benzamide] | – | – | i.a. | i.a.
c1ccc(-c2ccc(Cc3nnc(-c4ccccc4)s3)cc2)cc1 [Entry 1039, 2-([1,1′-biphenyl]-4-ylmethyl)-5-phenyl-1,3,4-thiadiazole] | < 5.30 | < 5.30 | – | –
O=[N+]([O-])c1ccccc1-c1nnc(-c2ccccc2)o1 [Entry 80, 2-(2-nitrophenyl)-5-phenyl-1,3,4-oxadiazole] | 5.30 to 6.00 | 5.30 to 6.00 | – | –
COc1ccc(-c2nnc(-c3ccc(C(F)(F)F)cc3)o2)cc1 [Entry 55, 2-(4-methoxyphenyl)-5-(4-(trifluoromethyl)phenyl)-1,3,4-oxadiazole] | – | – | i.a. | i.a.
O=[N+]([O-])c1ccccc1-c1nnc(-c2cccc(C(F)(F)F)c2)o1 [Entry 62, 2-(2-nitrophenyl)-5-(3-(trifluoromethyl)phenyl)-1,3,4-oxadiazole] | 5.30 to 6.00 | 5.30 to 6.00 | – | –
FC(F)(F)c1cccc(-c2nnc(-c3ccco3)o2)c1 [Entry 57, 2-(furan-2-yl)-5-(3-(trifluoromethyl)phenyl)-1,3,4-oxadiazole] | 5.30 to 6.00 | > 6.00 | – | –
c1ccc(-c2nnc(-c3ccnc4ccccc34)o2)cc1 [Entry 15, 2-phenyl-5-(quinolin-4-yl)-1,3,4-oxadiazole] | – | – | i.a. | i.a.
FC(F)(F)c1cccc(-c2nnc(-c3ccnc4ccccc34)o2)c1 [Entry 59, 2-(quinolin-4-yl)-5-(3-(trifluoromethyl)phenyl)-1,3,4-oxadiazole] | 5.30 to 6.00 | > 6.00 | – | –
COc1cccc(-c2nnc(-c3ccc(C)cc3)o2)c1 [Entry 41, 2-(3-methoxyphenyl)-5-(p-tolyl)-1,3,4-oxadiazole] | > 6.00 | > 6.00 | – | –

Results, then the compound that gave them:

pEC50 (ERRγ) | pEC50 (ERRα) | EC50 (ERRγ) μM (ERRγ) | EC50 (ERRα) μM (ERRα) | Compound
> 6.00 | > 6.00 | – | – | O=[N+]([O-])c1ccc(-c2nnc(-c3ccccc3)o2)cc1 [Entry 7, 2-(4-nitrophenyl)-5-phenyl-1,3,4-oxadiazole]
> 6.00 | > 6.00 | – | – | Cc1ccc(-c2nnc(-c3cncs3)s2)cc1 [Entry 1082, 2-(thiazol-5-yl)-5-(p-tolyl)-1,3,4-thiadiazole]
> 6.00 | > 6.00 | – | – | COc1ccc(-c2nnc(-c3ccccc3[N+](=O)[O-])o2)cc1 [Entry 82, 2-(4-methoxyphenyl)-5-(2-nitrophenyl)-1,3,4-oxadiazole]
> 6.00 | > 6.00 | – | – | c1ccc(-c2nnc(-c3ccccc3)s2)cc1 [Entry 1004, 2,5-diphenyl-1,3,4-thiadiazole]
> 6.00 | < 5.30 | – | – | Cc1ccc(-c2nnc(-c3ccc4ccccc4n3)s2)cc1 [Entry 1042, 2-(quinolin-2-yl)-5-(p-tolyl)-1,3,4-thiadiazole]
> 6.00 | > 6.00 | – | – | COc1ccc(-c2nnc(-c3ccco3)o2)cc1 [Entry 18, 2-(furan-2-yl)-5-(4-methoxyphenyl)-1,3,4-oxadiazole]
> 6.00 | > 6.00 | – | – | Cc1ccc(-c2nnc(-c3ccnc4ccccc34)o2)cc1 [Entry 34, 2-(quinolin-4-yl)-5-(p-tolyl)-1,3,4-oxadiazole]
> 6.00 | > 6.00 | – | – | COc1ccc(-c2nnc(-c3ccnc4ccccc34)o2)cc1 [Entry 22, 2-(4-methoxyphenyl)-5-(quinolin-4-yl)-1,3,4-oxadiazole]
> 6.00 | > 6.00 | – | – | Cc1ccc(-c2nnc(-c3ccccc3Cl)o2)cc1 [Entry 40, 2-(2-chlorophenyl)-5-(p-tolyl)-1,3,4-oxadiazole]
> 6.00 | > 6.00 | – | – | Cc1ccc(-c2nnc(-c3ccc(C)o3)o2)cc1 [Entry 32, 2-(5-methylfuran-2-yl)-5-(p-tolyl)-1,3,4-oxadiazole]
> 6.00 | > 6.00 | – | – | c1ccc(-c2nnc(-c3ccccc3)o2)cc1 [Entry 1]
> 6.00 | > 6.00 | – | – | Clc1ccc(-c2nnc(-c3ccc(Cl)cc3)o2)cc1 [Entry 6]
> 6.00 | > 6.00 | – | – | Clc1ccc(-c2nnc(-c3ccccc3)o2)cc1 [Entry 2]
> 6.00 | > 6.00 | – | – | Cc1ccc(-c2nnc(-c3cccs3)s2)cc1 [Entry 1031, 2-(thiophen-2-yl)-5-(p-tolyl)-1,3,4-thiadiazole]
> 6.00 | > 6.00 | – | – | Cc1ccc(-c2nnc(-c3cccc4ccccc34)s2)cc1 [Entry 1043, 2-(naphthalen-1-yl)-5-(p-tolyl)-1,3,4-thiadiazole]
> 6.00 | > 6.00 | – | – | COc1ccc(-c2nnc(-c3ccccc3)s2)c([N+](=O)[O-])c1 [Entry 1036, 2-(4-methoxy-2-nitrophenyl)-5-phenyl-1,3,4-thiadiazole]
> 6.00 | > 6.00 | – | – | COc1ccc(-c2nnc(-c3cccs3)s2)cc1 [Entry 1022, 2-(4-methoxyphenyl)-5-(thiophen-2-yl)-1,3,4-thiadiazole]
> 6.00 | > 6.00 | – | – | Cc1ccc(-c2nnc(-c3cccc([N+](=O)[O-])c3)o2)cc1 [Entry 38, 2-(3-nitrophenyl)-5-(p-tolyl)-1,3,4-oxadiazole]
> 6.00 | 5.30 to 6.00 | – | – | COc1ccc(-c2nnc(-c3cccc([N+](=O)[O-])c3)o2)cc1 [Entry 26, 2-(4-methoxyphenyl)-5-(3-nitrophenyl)-1,3,4-oxadiazole]
> 6.00 | > 6.00 | – | – | Cc1ccc(-c2nnc(-c3ccnc4ccccc34)s2)cc1 [Entry 1025, 2-(quinolin-4-yl)-5-(p-tolyl)-1,3,4-thiadiazole]
> 6.00 | > 6.00 | – | – | Cc1ccc(-c2nnc(-c3cccc4ncccc34)s2)cc1 [Entry 1058, 2-(quinolin-5-yl)-5-(p-tolyl)-1,3,4-thiadiazole]
> 6.00 | > 6.00 | – | – | FC(F)(F)c1cccc(-c2nnc(-c3ccccn3)s2)c1 [Entry 1008, 2-(pyridin-2-yl)-5-(3-(trifluoromethyl)phenyl)-1,3,4-thiadiazole]
